Source: article PMC10825690, “Crystal structures of human immune protein FIBCD1 suggest an extended binding site compatible with recognition of pathogen-associated carbohydrate motifs” (The Journal of Biological Chemistry, 2023)
Positions count from the first letter of the chain named.

Legend:
[1] = target: T1, wildtype (WT) FIBCD1-FReD (Homo sapiens, UniProt Q8N539); assay: Repeated ELISA inhibition of wildtype FIBCD1-FReD (CHO expressed) binding to AcBSA; details: ELISA repeated measurements, mean ± SD, eight experiments
T1 construct: FIBCD1-FReD (residues 236–461) was expressed in Sf9 insect cells; IgG K signal peptide (N); made in house; host or cells: CHO cells (ExpiCHO system, pcDNA3.1+)
T1 sequence (Q8N539 236-461): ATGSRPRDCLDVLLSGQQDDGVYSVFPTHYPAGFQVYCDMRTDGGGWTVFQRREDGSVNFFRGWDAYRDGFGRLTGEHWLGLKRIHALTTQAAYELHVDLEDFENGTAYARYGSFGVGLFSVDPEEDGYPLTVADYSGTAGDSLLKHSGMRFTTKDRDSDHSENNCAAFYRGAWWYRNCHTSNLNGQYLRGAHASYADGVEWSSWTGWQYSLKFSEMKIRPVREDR
Excerpt: To study the finer details of short oligomer recognition, binding of GlcNAc, (GlcNAc)2, and (GlcNAc)3 was further investigated by ELISA.
(§1) The cloning, expression, and purification of FIBCD1-FReD have been described in detail ([1]). Briefly, for the protein used for the ligand-bound crystal structures, the initial enzyme-linked immunosorbent inhibition assay (ELISA) and the MST affinity assay, FIBCD1-FReD (residues 236–461) was expressed in Sf9 insect cells using the pNT-Bac vector expression system. The recombinant FIBCD1-FReD variants used for the native crystal structure and for the repeated measurements of (GlcNAc)n n = 1, 2, 3 inhibition by ELISA, the same fragments of FIBCD1-FReD (wildtype, H396A, and K381L) were expressed in Chinese hamster ovary (CHO) cells using the ExpiCHO expression system (ThermoFisher Scientific) with FIBCD1-FReD (including the IgG K signal peptide for secretion) cloned into the pcDNA3.1+ plasmid (Genscript). Purification of the FIBCD1-FReD variants, regardless of the expression system, was achieved through affinity chromatography using acetylated Toyopearl AF-Amino-650M resin (Tosoh) followed by ion-exchange chromatography using a Resource Q ion-exchange column (GE Healthcare) as outlined in Schlosser et al. (Ref ([1])).
(§2) The specificity of the binding of recombinant FIBCD1-FReD, expressed in insect cells, to AcBSA was assayed in technical duplicates by inhibition with acetylated compounds, including GlcNAc (Sigma-Aldrich) and three N-acetylchitooligosaccharides of defined length ((GlcNAc)3, (GlcNAc)5, and (GlcNAc)11) and acetylation (66%), which were kindly provided by Professor Morten Sølie (Norwegian University of Life Sciences). The monoclonal antibodies used in the study here were generated in-house at the University of Southern Denmark and chosen from a large series of monoclonal antibodies raised against the FReD domain (human) in FIBCD1-deficient mice—details for the production are given in ([3]). […]

[2] = target: T2, mutant variant H396A FIBCD1-FReD (Homo sapiens, UniProt Q8N539, H396A); assay: Repeated ELISA inhibition of H396A FIBCD1-FReD (CHO expressed) binding to AcBSA; details: ELISA repeated measurements, mean ± SD, five experiments
T2 construct: FIBCD1-FReD (residues 236–461) was expressed in Sf9 insect cells; IgG K signal peptide (N); made in house; host or cells: CHO cells (ExpiCHO system, pcDNA3.1+)
T2 sequence (Q8N539 236-461 H396A): T1 sequence (Q8N539 236-461) with H161A
Excerpt: (§3) For S1(2), the mutation K381L was chosen to block this site. In the crystal structure of the homologous protein ficolin-3 the overall topology of this pocket is similar but the Leu381 side chain extends into the site and a similar orientation in FIBCD1 would preclude the ligand binding in this pocket (see Fig. S5). […] For the S1(3) site, the mutation H396A was used. There is no significant difference in affinity for H396A compared with wildtype for each GlcNAc ligand investigated (see Fig. S6C).
as §1
(§4) The specificity of the binding of recombinant FIBCD1-FReD, expressed in insect cells, to AcBSA was assayed in technical duplicates by inhibition with acetylated compounds, including GlcNAc (Sigma-Aldrich) and three N-acetylchitooligosaccharides of defined length ((GlcNAc)3, (GlcNAc)5, and (GlcNAc)11) and acetylation (66%), which were kindly provided by Professor Morten Sølie (Norwegian University of Life Sciences). […]

FIBCD1-FReD [3] = target: T3, FIBCD1-FReD (Homo sapiens, UniProt Q8N539); assay: ELISA inhibition of FIBCD1-FReD (insect cell expressed) binding to immobilized AcBSA; details: insect cell expressed FIBCD1-FReD 50 ng/ml, 5 mM CaCl2, mean ± SD, three to four experiments
T3 construct: FIBCD1-FReD (residues 236–461) was expressed in Sf9 insect cells; made in house; host or cells: Sf9 insect cells (pNT-Bac vector)
T3 sequence (Q8N539 236-461): T1 sequence (Q8N539 236-461)
Experimental: (§5) The binding of FIBCD1-FReD with GlcNAc, (GlcNAc)3, and longer N-acetylchitooligosaccharides of defined length ((GlcNAc)5 and (GlcNAc)11) was investigated by ELISA. The relative affinity for these carbohydrates was assessed by inhibiting the binding of FIBCD1 to immobilized acetylated bovine serum albumin (AcBSA) in microtiter plates. […] The ligand-binding properties of FIBCD1-FReD were further evaluated using microscale thermophoresis (MST) measurements.
as §1, §4

FIBCD1-FReD [4] = target: T3, FIBCD1-FReD; assay: Microscale thermophoresis (MST) affinity assay; assay type: binding; details: for Kd: labeled FIBCD1-FReD 30 nM, TBS/Tw 5 mM CaCl2, 25 °C, mean ± SD, three to four measurements
Experimental: as §5, §1
The affinity between recombinant FIBCD1-FReD and the acetylated sugars GlcNAc, (GlcNAc)5 and ManNAc as well as AcBSA was determined by MST. FIBCD1-FReD expressed by insect cells was labeled using the Monolith NT Protein Labeling Kit RED-NHS (NanoTemper Technologies) according to the manufacturer’s instructions. Removal of unreacted dye was performed with the supplied columns equilibrated in TBS containing 5 mM CaCl2. Labeled FIBCD1-FReD was diluted in assay buffer (TBS/Tw containing 5 mM CaCl2) and used at a constant concentration of 30 nM throughout the experiments, whereas the putative ligands were titrated in 2-fold dilutions, ranging from 0.6 nM to 10 μM (AcBSA), 100 μM to 200 mM (GlcNAc), 50 μM to 100 mM (GlcNAc)5, and 250 μM to 500 mM (ManNAc). For the measurements, all ligands were incubated with labeled FIBCD1-FReD for 20 min at RT (21–22 °C) before being loaded into standard capillaries (NanoTemper Technologies). […] Data from three to four independently pipetted experiments were analyzed using the NanoTemper Analysis 1.2.20 software and used to fit the data for determination of the Kd values.

FIBCD1 = tested on: FIBCD1; set-up: method as in PMID 19710473; details: comparison with GlcNAc; cited from earlier work
[5] = target: T4, FIBCD1-FReD mutant variant K381L (Homo sapiens, UniProt Q8N539, K381L); assay: ELISA binding of K381L FIBCD1-FReD to AcBSA; details: two different detection antibodies (clones 11-14-25 and 11-14-13)
T4 construct: FIBCD1-FReD (residues 236–461) was expressed in Sf9 insect cells; IgG K signal peptide (N); made in house; host or cells: CHO cells (ExpiCHO system, pcDNA3.1+)
T4 sequence (Q8N539 236-461 K381L): T1 sequence (Q8N539 236-461) with K146L
Excerpt: as §3, §2

| Molecule | IC50 [1] [µM] | IC50 [2] [µM] | IC50 (FIBCD1-FReD [3]) [µM] | Kd (FIBCD1-FReD [4]) [µM] | also measured |
| --- | --- | --- | --- | --- | --- |
| CC(=O)N[C@H]1[C@H](O[C@H]2[C@H](O)[C@@H](NC(C)=O)C(O)O[C@@H]2CO)O[C@H](CO)[C@@H](O)[C@@H]1O (stereo partly drawn) [(GlcNAc)2, N,N′-diacetylchitobiose] | 1400 ± 160 | 1400 ± 110 |  |  |  |
| CC(=O)N[C@H]1[C@H](O[C@H]2[C@H](O)[C@@H](NC(C)=O)C(O)O[C@@H]2CO)O[C@H](CO)[C@@H](O[C@@H]2O[C@H](CO)[C@@H](O)[C@H](O)[C@H]2NC(C)=O)[C@@H]1O (stereo partly drawn) [(GlcNAc)3] | 1100 ± 100 | 1200 ± 140 | 500 ± 60 |  |  |
| CC(=O)N[C@@H]1[C@@H](O)[C@H](O)[C@@H](CO)O[C@H]1O [GlcNAc, N-acetylglucosamine] | 2200 ± 190 | 2400 ± 220 | 2000 ± 220 | 27000 ± 9000 |  |
| CC(=O)N[C@@H]1C(O)O[C@H](CO)[C@@H](O)[C@@H]1O (stereo partly drawn) [ManNAc, N-acetyl-D-mannosamine] |  |  |  | 31000 ± 8000 |  |
| CC(=O)N[C@H]1[C@H]([C@H](O)[C@H](O)CO)OC(O)(C(=O)O)C[C@@H]1O (stereo partly drawn) [Neu5Ac, N-acetylneuraminic acid] |  |  |  |  | IC50 relative to GlcNAc (FIBCD1): lower IC50 than GlcNAc |
| (GlcNAc)5 |  |  | 100 ± 30 | 1200 ± 400 | fold difference in affinity (Kd) between GlcNAc and (GlcNAc)5 (FIBCD1-FReD [4]; MST, GlcNAc Kd versus (GlcNAc)5 Kd): 23 fold |
| AcBSA: acetylated bovine serum albumin, poly-acetylated model ligand |  |  |  |  | binding of K381L FIBCD1-FReD to AcBSA in ELISA [5]: did not bind |
